According to patent publication US20260124226A1 (priority 2023, published 2026):
Where “and” joins values, the source holds several entries; their conditions need not be identical. Identical values can stand only once. Like-named read-outs stand apart in the source and are kept apart here.

Key:
Plasma stability [1] = experiment: Plasma stability
[2] = CD-1, mouse
Plasma stability [3] = experiment: Plasma stability; remark: listed apart in the source
[4] = both, human, pH 7.4
[5] = both, human
[6] = male, CD-1, mouse
Plasma stability [7] = experiment: Plasma stability; remark: listed apart in the source
[8] = male, Sprague-Dawley, rat
[9] = male, Sprague-Dawley, rat, pH 7.4
Vero cells = settings: African green monkey
Usutu virus = experiment: microbe, parasite or virus in culture; assay type: cell-based; settings: Vero 76
Flu A H5N1 (High Path) = assay type: cell-based, influenza A virus
Enterovirus-68 = experiment: microbe, parasite or virus in culture; assay type: cell-based, EV-D68; settings: Enterovirus-68, RD cells
Influenza A H1N1 = experiment: microbe, parasite or virus in culture; assay type: cell-based, influenza A virus
MERS = experiment: microbe, parasite or virus in culture; assay type: cell-based, MERS coronavirus; settings: Middle East respiratory syndrome-related coronavirus
VEEV = experiment: microbe, parasite or virus in culture; assay type: cell-based, Venezuelan equine encephalitis virus
RVFV = experiment: microbe, parasite or virus in culture; assay type: cell-based, Rift Valley fever virus
Junin virus = experiment: microbe, parasite or virus in culture; assay type: cell-based
Flu B = experiment: microbe, parasite or virus in culture; assay type: cell-based, influenza B virus
[10] = Liver microsome stability; settings: both, human, microsomes, pH 7.4
CHIKV = experiment: microbe, parasite or virus in culture; assay type: cell-based, Chikungunya virus; settings: for EC50: Vero76 cells
[11] = tested on: Lymphocytic choriomeningitis virus; experiment: microbe, parasite or virus in culture; assay type: cell-based; settings: Mammarenavirus choriomeningitidis, Vero
HRV-14 = experiment: microbe, parasite or virus in culture; assay type: cell-based, human rhinovirus; settings: Rhinovirus B, HRV14
in vitro [12] = settings: African green monkey
POWV = experiment: microbe, parasite or virus in culture; assay type: cell-based, Powassan virus
Flu A H7N9 (High Path) = experiment: microbe, parasite or virus in culture; assay type: cell-based, influenza A virus
WEEV = experiment: microbe, parasite or virus in culture; assay type: cell-based, Western equine encephalitis virus
Pichinde virus = experiment: microbe, parasite or virus in culture; assay type: cell-based; settings: Vero
DENV2 = experiment: microbe, parasite or virus in culture; assay type: cell-based, Dengue virus 2; settings: Dengue virus, DENV2, Vero 76
Flu A H3N2 = experiment: microbe, parasite or virus in culture; assay type: cell-based, influenza A virus
in vitro [13] = settings: human
ZIKV = experiment: microbe, parasite or virus in culture; assay type: cell-based, Zika virus; settings: for EC50: Vero 76 cells
Flu A H5N1 (Low Path) = experiment: microbe, parasite or virus in culture; assay type: cell-based, influenza A virus
EEEV = experiment: microbe, parasite or virus in culture; assay type: cell-based, Eastern equine encephalitis virus; settings: Eastern equine encephalitis virus, Vero 76
Poliovirus = experiment: microbe, parasite or virus in culture; assay type: cell-based
Heartland virus = experiment: microbe, parasite or virus in culture; assay type: cell-based; settings: Vero
in vitro [14] = settings: Syrian golden hamster
[15] = tested on: Severe fever thrombocytopenia syndrome virus; experiment: organism not typed; assay type: cell-based; settings: Vero
[16] = Liver microsome stability; settings: male, Sprague-Dawley, rat, microsomes, pH 7.4
[17] = Liver microsome stability; settings: CD-1, mouse, microsomes
Punta Toro virus = experiment: microbe, parasite or virus in culture; assay type: cell-based
in vitro [18] = settings: dog
in vitro [19] = settings: African green monkey; remark: listed apart in the source
in vitro [20] = settings: human; remark: listed apart in the source
EBOV = experiment: microbe, parasite or virus in culture; assay type: cell-based, Ebola virus; settings: Zaire ebolavirus, Vero
Parainfluenza virus 3 = experiment: organism not typed; assay type: cell-based
Tacaribe virus = experiment: microbe, parasite or virus in culture; assay type: cell-based
Marpol virus = experiment: organism not typed; assay type: cell-based
La Crosse virus = experiment: microbe, parasite or virus in culture; assay type: cell-based
[21] = Western equine encephalitis virus, Vero 76

CC(C)[C@H](N)C(=O)OC[C@@]1(F)O[C@@H](n2ccc(=O)[nH]c2=O)[C@H](O)[C@@H]1O [EIDD-2971, [(1S)-1-[[(2S,3S,4R,5R)-5-(2,4-dioxopyrimidin-1-yl)-2-fluoro-3,4-dihydroxy-tetrahydrofuran-2-yl]methoxycarbonyl]-2-methyl-propyl]ammonium chloride]
half-life (Plasma stability [1]; rat plasma, drug 1.00 μM): 50 min | max [2749] [2]: 0.305 µM | half-life ([2]; microsomes): 11 min | half-life (Plasma stability [3]; human plasma, drug 1.00 μM, 37° C.): 81 min | half-life ([4]; microsomes): 38 min | max [2749] [4]: 0.179 µM | max [2749] [5]: 0.0152 µM | max [2749] [6]: 0.267 µM | half-life (Plasma stability [7]; mouse plasma, drug 1.00 μM): 59 min | max [2749] [8]: 0.155 µM | half-life ([9]; microsomes): 33 min | max [2749] [9]: 0.203 µM

O=c1ccn([C@@H]2O[C@](F)(COP3(=O)OCc4ccccc4O3)[C@@H](O)[C@H]2O)c(=O)[nH]1 (stereo partly shown) [EIDD-2838]
CC50 (Vero cells): 213 µM | EC50 (Usutu virus): 6.9 µM | EC90 (Usutu virus): 25.8 µM | EC50 (Flu A H5N1 (High Path)): 11.3 µM | EC50 (Enterovirus-68; Enterovirus D, RD): 7.36 µM | EC50 (Enterovirus-68): 7.82 µM | half-life at 1 μM (Plasma stability [1]; male, Sprague-Dawley, rat, plasma): < 1 min | EC50 (Influenza A H1N1): 1.2 µM and 1.59 µM and 1.98 µM | EC50 (Influenza A H1N1; Influenza A virus, H1N1, MDCK): 2.3 µM | EC50 (MERS; Vero 76): 1.98 µM | EC50 (MERS; Vero C1008): 2.53 µM | EC50 (VEEV): 8.51 µM | EC50 (VEEV; Venezuelan equine encephalitis virus, Vero 76): 8.28 µM | EC50 (RVFV): 3.68 µM and 4.14 µM | EC50 (Junin virus): 0.37 µM | EC90 (Junin virus; Mammarenavirus juninense, Vero): 0.023 µM | EC50 (Flu B): 0.74 µM and 0.67 µM | EC50 (Flu B; Influenza B virus, MDCK): 0.78 µM | half-life at 1 μM [10]: 7 min | EC50 (CHIKV; CHIKV): 3.68 µM and 3.91 µM | EC90 (CHIKV; Chikungunya virus, Vero 76): 23.9 µM | EC50 (CHIKV; Chikungunya virus, Vero 76, CHIKV): 2.3 µM | EC90 [11]: 4.6 µM | half-life at 1 μM (Plasma stability [3]; both, human, plasma): 12 min | EC50 (HRV-14): > 230 µM | CC50 (in vitro [12]): > 230 µM | EC50 (POWV): 98.9 µM | EC50 (POWV; Powassan virus, BHK): 75.9 µM | half-life at 1 μM (Plasma stability [7]; male, CD-1, mouse, plasma): 1 min | EC50 (Flu A H7N9 (High Path)): 4.37 µM | EC50 (Flu A H7N9 (High Path); Influenza A virus, H7N9, MDCK): 5.29 µM | EC50 (WEEV): 5.75 µM and 5.98 µM | EC50 (WEEV; [21]): 7.82 µM | EC90 (WEEV; [21]): 24.2 µM | EC90 (Pichinde virus): 0.55 µM | EC50 (DENV2): > 230 µM | EC90 (DENV2): 29.9 µM | EC50 (Flu A H3N2): 0.87 µM | EC50 (Flu A H3N2; Influenza A virus, H3N2, MDCK): 0.97 µM | CC50 (in vitro [13]): > 230 µM | EC50 (ZIKV; ZIKV): 7.82 µM and 9.2 µM | EC90 (ZIKV; Zika virus, Vero 76): 43.7 µM | EC50 (ZIKV; Zika virus, Vero 76, ZIKV): 8.28 µM | EC50 (Flu A H5N1 (Low Path)): 0.71 µM | EC50 (Flu A H5N1 (Low Path); Influenza A virus, H5N1, MDCK): 0.78 µM | EC90 (EEEV): 28.4 µM | EC50 (Poliovirus): 8.74 µM | EC50 (Poliovirus; Enterovirus C, Vero 76): 7.36 µM | EC90 (Heartland virus): 8.05 µM | CC50 (in vitro [14]): > 230 µM | EC90 [15]: 7.82 µM | half-life at 1 μM [16]: 8 min | half-life at 1 μM [17]: 7 min | EC50 (Punta Toro virus): 5.75 µM | EC50 (Punta Toro virus; Punta Toro virus, Vero 76): 6.21 µM | CC50 (in vitro [18]): > 230 µM | CC50 (in vitro [19]): > 230 µM | CC50 (in vitro [20]): > 230 µM | EC50 (EBOV): 150 µM | EC50 (Parainfluenza virus 3): 78.2 µM | EC50 (Parainfluenza virus 3; MA104): 73.6 µM | EC50 (Tacaribe virus): 0.046 µM | EC90 (Tacaribe virus; Mammarenavirus tacaribeense, Vero): 0.046 µM | EC50 (Marpol virus): 19.1 µM | EC50 (Marpol virus; Vero): 25.3 µM | EC50 (La Crosse virus): 0.69 µM | EC90 (La Crosse virus; La Crosse virus, Vero 76): 0.12 µM
